According to patent US9144613B2, “Halogenated phenols for diagnostics, antioxidant protection and drug delivery” (priority 2012, dated 2015):

Experiments:
[1] = tested on: sites of the wound or injury; conditions: mice with small injuries or wounds (cuts, scratches); data not shown
[2] = tested on: spontaneous tumors; conditions: 10 mg by gavage; X-ray imaging about two hours after; mice showing spontaneous tumors; control images of same mice prior to treatment did not show foci
From the text: As described above, oxidative foci or tumors may be identified by X-ray radiographic imaging of animals following administration of an indigogenic compound of the present invention. The radio-opaque indigo-like product formed and deposited with residence time in FROS-containing tumor tissues may then be detected.
In this example, female C3H/HeN mice were obtained as multiparous retired breeders (i.e., after 3 to 4 litters) that were positive for a mammary tumor virus. See, e.g., Sellitti, D. F., Tseng, Y-C., and Latham, K. R., “Effect of 3,5,3′-Triiodo-L-thyronine on the Incidence and Growth Kinetics of Spontaneous Mammary Tumors in C3H/HeN Mice,” Cancer Research, 41: 5015-19 (1981), the entire contents and disclosure of which are incorporated herein by reference. Mice showing spontaneous tumors were given 10 mg of 5-Iodo-Indoxyl-3′,5′-Diiodo-4′-hydroxy ether substrate (product of Example 4) by gavage. These mice were then subjected to X-ray imaging of the tumors about two hours after being fed the iodo-indigogenic compound. […] When developed, the X-ray film appears dark in areas where more transmission occurs and light in areas where less transmission occurs.

[3] = Cleavage of the C—C bond during the oxidative dehalogenation reaction; assay type: physicochemical
From the text: It has also been discovered that other types of bonds or linkages may also be cleaved by oxidative or free radical-mediated dehalogenation of the phenol ring. For example, as described herein, it has now been observed that a carbonyl linkage, a nitrogen linkage, a sulfinyl linkage and possibly a C—C bond on the phenol ring may also be cleaved by the oxidative dehalogenation reaction. These bonds are also considered stable, and their cleavage in connection with the dehalogenation reaction is surprising as well. One caveat with the C—C bond or linkage is that depending on the particular starting compound structure and the substituents or groups attached to the halogenated phenol ring via the C—C bond, the C—C bond or linkage may or may not be generally cleaved during or following the dehalogenation reaction (see below). […] However, other compounds do become cleaved. It is important to note that whether a C—C bond of a particular starting compound is “cleavable,” or becomes cleaved, may not be all-or-nothing (i.e., the C—C bond may be considered non-cleavable even though a small or minute amount of cleavage may occur, and vice versa). Thus, the amount or percentage of cleavage may be partial with the alternatively cleaved or non-cleaved product being possibly undetected or minute. […]

[4] = Spontaneous dehalogenation and ether cleavage in buffered aqueous solution exposed to sunlight; assay type: physicochemical; conditions: about 1 mM in carbonate buffer (pH 8.0), exposed to sunlight for about one hour; clear yellow/orange solution formed
From the text: In contrast to reductive deiodination, spontaneous dehalogenation (e.g., deiodination) of a halogentated phenol ring in the presence of an oxidizing agent(s) and/or free radical(s) with cleavage of a chemical linkage, such as an ether linkage, etc., between the phenol ring and a conjugated compound has not been described. According to the present invention, cleavage of the ether linkage between the aromatic rings of thyroid hormone may form visibly colored quinone and iodine-containing products in buffered aqueous solutions in vitro, and this ether cleavage reaction may be accelerated under basic pH conditions and with exposure to ionizing radiation or light. These conditions favor the increased formation of oxidizing agents and/or free radicals, which are believed to promote the reaction. […] A quinone and an iodotyrosine product are also formed by cleavage of the ether linkage during the reaction. According to embodiments of the present invention, a spontaneous reaction of dehalogenation and cleavage of a chemical bond is proposed for the targeted delivery and release of a drug compound at or to sites of inflammation or disease. This spontaneous reaction is further proposed as a basis for scavenging free radicals and/or oxidative agents (FROS) as well as for the creation of a detectable compound(s) that may be used for diagnostic purposes.

SMILES: Oc1c(I)cc(Oc2c[nH]c3ccc(I)cc23)cc1I [Example 4, 5-Iodo-Indolyl-3′,5′-Diiodo-4′-hydroxyl-p-Phenol Ether]
- X-ray detection at sites of wound or injury [1]: strong detection was observed
- radio-opaque tumor regions or foci by X-ray (formation and deposit of indigo-like product in oxidative tumor tissues) [2]: radio-opaque tumor regions or foci

SMILES: N[C@@H](Cc1ccc(O)c(I)c1)C(=O)O [MIT, 3-iodo-4-hydroxy-L-phenylalanine]
- cleavage of C—C bond with the dehalogenation reaction [3]: generally not to be cleaved

SMILES: N[C@@H](Cc1cc(I)c(Oc2cc(I)c(O)c(I)c2)c(I)c1)C(=O)O [thyroxine]
- cleavage of ether linkage with release of iodide [4]: the ether linkage is broken spontaneously
